Series [1] deals with Human dendritic cells. The series can be described thus: CD86 levels at the DC cell surface (flow cytometry). In kind it is cell-based. The settings on record: 100 μg, 48 hours. In short, it runs like this:
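Human DCs (from donors B and C) at 1.0×10^5 cells/ml were exposed 48 h to 100 μg of 6-base polynucleotides. Surface CD86 was measured by flow cytometry with a PE-conjugated anti-CD86 mAb. Values are % CD86^hi DC after treatment.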
For orientation: A flow cytometer gives signals particle by particle.

Series [2] deals with Human dendritic cells. The series can be described thus: Induction of IL-1beta production by DC (ELISA). The class given is cell-based. The settings on record: 100 μg, 48 hours. In a few lines: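 Cells from three donors, seeded at 1.0×10^5 cells/ml, were exposed for 48 hours to 100 μg of 6-base polynucleotides. IL-1beta in culture supernatant measured by ELISA; values are fold increase over untreated control cells.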
(An ELISA detects its analyte on a solid surface through an enzyme-linked reagent.)

Series [3] concerns Human dendritic cells. The series can be described thus: MHC-II levels at the DC cell surface (flow cytometry). In kind it is cell-based. The settings on record: DC from individual B; 100 μg, 48 hours. In short, it runs like this:
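Dendritic cells from one donor were seeded at 1.0×10^5 cells/ml and treated for 48 h with 100 μg of 6-base polynucleotides. Surface MHC II was then measured by flow cytometry with a FITC-conjugated anti-MHC II antibody. Values are the percentage of MHC II^hi DC.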

The subject of series [4] is Human dendritic cells. Kind of series: Induction of IL-12 production by DC (ELISA). In kind it is cell-based. The settings on record: 100 μg, 48 hours. In a few lines:
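Human DCs from three donors, 1.0×10^5 cells/ml, exposed 48 h to 100 μg of 6-base polynucleotides. IL-12 in culture supernatant measured by ELISA. Values given as fold increase over untreated control cells.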

Another series relates to female BALB/C mice. Kind of series: Vaccination with hepatitis surface antigen (intramuscular), anti-HbsAg end-point dilution ELISA. The class given is in vivo. The protocol:
Immunization with recombinant hepatitis B surface antigen (HbsAg; Cortex Biochemical, San Leandro, Calif., USA) combined with aluminum hydroxide (Alum; SuperFos Biosector, Vedback, Denmark) and/or with N3A, N6A or N6B polynucleotides, was conducted on 6-8 week old female BALB/C mice (Charles River, St-Constant, Qc, Canada). Each mouse (5 mice per group) received a single intramuscular injection into the tibialis muscle of a solution containing: Saline (Group 1), HbsAg 1 μg (Group 2), HbsAg 1 μg+Alum 10 μg (Group 3), HbsAg 1 μg+Alum 10 μg+N3A 10 μg (Group 4), HbsAg 1 μg+Alum 10 μg+N3A 100 μg (Group 5), HbsAg 1 μg+Alum 10 μg+N3B10 μg (Group 6), HbsAg 1 μg+Alum 10 μg+N3B100 μg (Group 7), HbsAg 1 μg+Alum 10 μg+N6A 10 μg (Group 8), HbsAg 1 μg+Alum 10 μg+N6A 100 μg (Group 9), HbsAg 1 μg+Alum 10 μg+N6B 10 μg (Group 10) and HbsAg 1 μg+Alum 10 μg+N6B 100 μg (Group 11) in a total volume of 50 μl at day 0 and day 21. Plasma was recovered at day 31.
Antibodies specific to HbsAg were detected and quantified by end-point dilution assay ELISA. Briefly, a solid phase of HbsAg protein (0.1 μg per well, overnight at 4° C.) was used to capture anti-HbsAg in the plasma (1 hour at 37° C.), which were then detected with horseradish peroxidase-conjugated goat anti-mouse IgG (total), IgG1 and IgG2a following the instructions of the manufacturer (Clonetyping system, Southern Biotechnology Inc., Birmingham, Ala., USA). […] Data are expressed in Table 13 as the mean±SD of 5 mice per group.

Series [5] concerns Human dendritic cells. Kind of series: Endocytosis of FITC-dextran by DC. The class given is cell-based. The settings on record: DC from individual B, 100 μg, 24 hours, untreated control = 100. As to the method:
Human dendritic cells were obtained from Clonetics (San Diego, Calif., USA) and were cultured in the medium recommended by Clonetics. DC were obtained from three different individuals (see Table 1). Major histocompatability typing was performed on each of these individuals and several of the HLA (human leukocyte antigens) types are shown.
DC from individual B were seeded in 1.0 ml at 1.0×10^5 cells/ml in 6-well flat-bottomed tissue culture plates for 24 hours with 1 mg/ml of FITC-dextran (20 kDa; Sigma-Aldrich) in the absence or presence of 100 μg of 6 base N2A, N2B, N3A, N3B, N5A, N5B, and N6B polynucleotides at 4° C. (control cell surface binding of FITC-dextran) and 37° C. (to assess endocytosis). Cells were washed three times with ice-cold phosphate buffered saline and analyzed by flow cytometry using CELLQuest Pro. Results are expressed as relative endocytic rate (normalized Δ Mean Fluorescence Value (Δ MFV)). Δ MFV=MFV of DC exposed to FITC-dextran at 37° C.−MFV of DC exposed to FITC-dextran at 4° C. Δ MFV=(ΔMFVsequence/ΔMFVcontrol)×100.

The mark [6] stands for this setting: HbsAg 1 μg + Alum 10 μg + polynucleotide 10 μg i.m. day 0 and 21, plasma day 31.
Setting [7] is: HbsAg 1 μg + Alum 10 μg + polynucleotide 100 μg i.m. day 0 and 21, plasma day 31.

The values that follow come from patent US7371734B2, “Oligonucleotide compositions and their use for the modulation of immune responses” (Bioniche Life Sciences Inc., priority 2002, dated 2008).

Marks after values point to notes of the source that are not given here.

For 5′GGGAGG3′ [N6A] (unmodified DNA), the “The percentage of CD86^hi DC following treatment” value in the series with Human dendritic cells [1] (DC from individual B) is reported as 24** %; in the series on Human dendritic cells [1] (DC from individual C), 18%. Also, the results for the “IL-1beta production by DC (fold increase compared to untreated DC)” value with Human dendritic cells [2] (DC isolated from individual A), in the series on Human dendritic cells [2] (DC isolated from individual B) and in the series on Human dendritic cells [2] (DC isolated from individual C) were 1.0 fold, 1.1 fold and 0.9 fold, respectively. In the series on Human dendritic cells [3], the “The percentage of MHC-II^hi DC following treatment” value was 25%. For the same substance, the “IL-12 production by DC (fold increase compared to untreated DC)” value in the series with Human dendritic cells [4] (DC isolated from individual A), with Human dendritic cells [4] (DC isolated from individual B) and in the series with Human dendritic cells [4] (DC isolated from individual C) was 1.0 fold throughout. For the same substance, the “End-point titers IgG1, mean ± SD” value came out at 2010 ± 2187 in the series on female BALB/C mice (setting [6]) and 6420 ± 2528 in the series on female BALB/C mice (setting [7]). In addition, the “End-point titers IgG2a, mean ± SD” value turned out to be 250 ± 257 in the series with female BALB/C mice (setting [6]) and 291 ± 154 in the series on female BALB/C mice (setting [7]). Also, the “End-point titers IgG total, mean ± SD” value in the series on female BALB/C mice (setting [6]) came to 439 ± 705; with female BALB/C mice (setting [7]), 1185 ± 607.

In the case of “5′GGGAGG3′ [N6B] (DNA, backbone not given here; further chemistry not fully specified)”, the “The percentage of CD86^hi DC following treatment” value in the series with Human dendritic cells [1] (DC from individual B) worked out at 15%; in the series on Human dendritic cells [1] (DC from individual C), 33%. The “IL-1beta production by DC (fold increase compared to untreated DC)” value with Human dendritic cells [2] (DC isolated from individual A) was determined as 1.0 fold; in the series with Human dendritic cells [2] (DC isolated from individual B), 1.1 fold; in the series with Human dendritic cells [2] (DC isolated from individual C), 1.0 fold. Also, in the series on Human dendritic cells [3], the “The percentage of MHC-II^hi DC following treatment” value is 27%. The “IL-12 production by DC (fold increase compared to untreated DC)” value in the series with Human dendritic cells [4] (DC isolated from individual A) is 1.3 fold; in the series on Human dendritic cells [4] (DC isolated from individual B) it was 1.4 fold; in the series with Human dendritic cells [4] (DC isolated from individual C), 4.1 fold. Further, the “End-point titers IgG1, mean ± SD” value with female BALB/C mice (setting [6]) was 2880 ± 1126; in the series on female BALB/C mice (setting [7]), 3560 ± 1210. Besides, the “End-point titers IgG2a, mean ± SD” value in the series on female BALB/C mice (setting [6]) worked out at 187 ± 46; in the series on female BALB/C mice (setting [7]), 205 ± 76. The “End-point titers IgG total, mean ± SD” value was 551 ± 309 in the series with female BALB/C mice (setting [6]) and 660 ± 364 in the series on female BALB/C mice (setting [7]). For the same substance, the “Relative endocytic rate (normalized Δ MFV)” value in the series with Human dendritic cells [5] was 23.

For 5′GGGTGG3′ [N3A], the “The percentage of CD86^hi DC following treatment” value in the series on Human dendritic cells [1] (DC from individual B) is on record as 16%; in the series on Human dendritic cells [1] (DC from individual C) it was 37** %. In addition, the “IL-1beta production by DC (fold increase compared to untreated DC)” value in the series on Human dendritic cells [2] (DC isolated from individual A) is 1.1 fold; with Human dendritic cells [2] (DC isolated from individual B) it was 1.1 fold; in the series on Human dendritic cells [2] (DC isolated from individual C), 1.0 fold. The “The percentage of MHC-II^hi DC following treatment” value in the series on Human dendritic cells [3] was 23%. The “IL-12 production by DC (fold increase compared to untreated DC)” value with Human dendritic cells [4] (DC isolated from individual A), with Human dendritic cells [4] (DC isolated from individual B) and in the series on Human dendritic cells [4] (DC isolated from individual C) was 1.0 fold throughout. The “End-point titers IgG1, mean ± SD” value is listed as 9300 ± 3365 in the series on female BALB/C mice (setting [6]) and 13320 ± 12993 with female BALB/C mice (setting [7]). Besides, the “End-point titers IgG2a, mean ± SD” value in the series on female BALB/C mice (setting [6]) amounted to 272 ± 255; with female BALB/C mice (setting [7]), 860 ± 719. Besides, the “End-point titers IgG total, mean ± SD” value is recorded as 849 ± 386 with female BALB/C mice (setting [6]) and 1985 ± 1748 with female BALB/C mice (setting [7]). Moreover, in the series with Human dendritic cells [5], the “Relative endocytic rate (normalized Δ MFV)” value is recorded as 156.

For the substance 5′GGGTGG3′ [N3B], the entries for the “The percentage of CD86^hi DC following treatment” value with Human dendritic cells [1] (DC from individual B) and in the series on Human dendritic cells [1] (DC from individual C) were 30** % and 39** %, respectively. Besides, the “IL-1beta production by DC (fold increase compared to untreated DC)” value was determined as 1.7 fold in the series on Human dendritic cells [2] (DC isolated from individual A), 4.4 fold with Human dendritic cells [2] (DC isolated from individual B) and 2.1 fold in the series on Human dendritic cells [2] (DC isolated from individual C). Also, in the series on Human dendritic cells [3], the “The percentage of MHC-II^hi DC following treatment” value is 25%. The “IL-12 production by DC (fold increase compared to untreated DC)” value in the series with Human dendritic cells [4] (DC isolated from individual A) turned out to be 5.2 fold; in the series on Human dendritic cells [4] (DC isolated from individual B), 17.3 fold; in the series on Human dendritic cells [4] (DC isolated from individual C), 14.4 fold. For the same substance, the “End-point titers IgG1, mean ± SD” value is on record as 3460 ± 1680 with female BALB/C mice (setting [6]) and 4460 ± 1884 with female BALB/C mice (setting [7]). Further, the entries for the “End-point titers IgG2a, mean ± SD” value with female BALB/C mice (setting [6]) and with female BALB/C mice (setting [7]) were 120 ± 26 and 204 ± 129, respectively. Besides, the figures for the “End-point titers IgG total, mean ± SD” value in the series with female BALB/C mice (setting [6]) and in the series with female BALB/C mice (setting [7]) were 287 ± 142 and 437 ± 305, respectively. Also, the “Relative endocytic rate (normalized Δ MFV)” value in the series with Human dendritic cells [5] amounted to 211.
